Measurements reported in US20240309065A1, “SHORT APOC-II MIMETIC PEPTIDES AND METHODS OF USE” (The United States of America, as represented by the …, priority 2021, published 2024).
Where a SMILES comes first, the peptide text is derived from it. Bridges are numbered along the chain shown (N, C = ends). Where no end group is shown, it is not given here. [ ]: non-standard residue; d: D form. The star is where a group is joined. R8 = C=CCCCCCC[C@@](C)(N)C(=O)O; S5 = C=CCCC[C@](C)(N)C(=O)O; dNle = CCCC[C@@H](N)C(=O)O; Nle = CCCC[C@H](N)C(=O)O; Octanoyl = CCCCCCCC(=O)*; Sar = CNCC(=O)O

Legend:
[1] = target: T1, LPL from bovine milk (Bos taurus, UniProt P11151); test: LPL activation assay (generation of NEFA); format: biochemical; conditions: 0-10 μM peptide, 7.45 nM LPL, apoC-II deficient plasma, 37° C. for 1 hour, NEFA measured
T1 construct: 7.45 nM of LPL from bovine milk (Sigma-Aldrich); purchased Sigma-Aldrich; host or cells: bovine milk
T1 sequence (P11151 29-478): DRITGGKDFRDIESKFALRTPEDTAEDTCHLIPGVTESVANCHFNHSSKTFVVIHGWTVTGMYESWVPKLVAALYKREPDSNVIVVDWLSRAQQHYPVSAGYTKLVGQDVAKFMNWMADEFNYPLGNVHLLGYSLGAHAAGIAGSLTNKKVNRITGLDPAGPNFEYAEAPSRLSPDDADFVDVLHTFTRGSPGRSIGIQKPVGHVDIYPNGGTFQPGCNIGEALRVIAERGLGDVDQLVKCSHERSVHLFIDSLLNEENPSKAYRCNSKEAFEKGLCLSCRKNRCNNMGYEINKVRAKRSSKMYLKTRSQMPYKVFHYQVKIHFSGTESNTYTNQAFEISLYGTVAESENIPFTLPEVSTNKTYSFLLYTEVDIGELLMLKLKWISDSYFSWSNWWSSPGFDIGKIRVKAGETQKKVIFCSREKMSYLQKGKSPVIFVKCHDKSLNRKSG
Description: (§1) LPL activity was determined by measuring the generation of NEFA. In a 96-well plate, 0-10 μM of an apoC-II mimetic peptide, 7.45 nM of LPL from bovine milk (Sigma-Aldrich), apoC-II deficient ethylenediaminetetraacetic acid (EDTA)-plasma (diluted with PBS to a final TG concentration of 3 mg/dL), 10 IU/ml heparin, 1% bovine serum albumin (BSA) (ICN Biomedicals), and PBS (Life Technologies) were combined in a final reaction volume of 50 μL, pre-incubated on ice for 30 minutes, and incubated at 37° C. for 1 hour. NEFA were measured with a coupled enzyme reaction (FUJIFILM Wako Diagnostics), in a SpectraMax Plus 384 Microplate Reader.

[2] = target: T2, Pepsin A (Sus scrofa, UniProt P00791); test: LPL activation ability following pepsin treatment; format: in vitro ADME; conditions: 1 mg/ml Pepsin A, pH 1.92, 1 hour at 37° C.; final concentration 10 µM of peptides
T2 construct: purchased Sigma Aldrich P6887-1G
T2 sequence (P00791 60-385): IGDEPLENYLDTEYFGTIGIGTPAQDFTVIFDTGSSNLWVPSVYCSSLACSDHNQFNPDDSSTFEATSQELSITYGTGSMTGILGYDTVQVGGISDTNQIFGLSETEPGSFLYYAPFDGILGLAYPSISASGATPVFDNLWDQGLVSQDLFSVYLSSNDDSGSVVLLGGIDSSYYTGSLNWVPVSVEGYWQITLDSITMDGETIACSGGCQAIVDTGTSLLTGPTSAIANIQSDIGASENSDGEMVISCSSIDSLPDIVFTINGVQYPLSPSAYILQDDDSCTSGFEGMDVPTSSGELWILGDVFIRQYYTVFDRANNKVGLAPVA
Description: as §1
Peptide resistance to proteolysis was also tested. Peptides at 0.1 mM concentration were incubated at 37° C. in 20 mM ammonium bicarbonate buffer at pH 8.2 with 10 μg/ml trypsin or […] Proteinase K. The amount of intact peptide was monitored over 24-hour time period by MALDI-TOF using internal standards (Bombesin, ACTH (1-17), ACTH (18-39), and Insulin) to quantify the relative amount of peptide in each sample. As shown in FIGS. 16A-16D, the tested peptides had varying degrees of resistance to trypsin and proteinase K. In addition, peptides were tested for LPL activation ability following pepsin treatment. Peptides (1 mM stock) were prepared in 5 mM TRIS, pH 8.2. […] In vitro generated NEFA were measured by the colorimetric assay.

[3] = test system: apoC-II knockout mice; test: Peptide activity in vivo in apoC-II knockout mice; conditions: single intraperitoneal injection 5 μmole/kg, blood at 1, 3, 6 and 24 hours; for triglycerides: compared to control
Description: A study was performed comparing the effect of D6-PV (SEQ ID NO: 15) and SPH2S (SEQ ID NO: 5) peptides in apoC-II knockout mice. Mice were given a single intraperitoneal injection of the peptide (5 μmole/kg) and blood was collected at 1 hour, 3 hours, 6 hours and 24 hours after injection. Triglycerides, total cholesterol, and non-esterified fatty acids (NEFA) were measured.

[4] = DMPC vesicle solubilization assay; conditions: 0.5 mM peptides, DMPC vesicles 0.5 mg/mL in PBS pH 7.4, absorbance at 660 nm for 1 hour at 24° C.
Description: Tested peptides were able to solubilize DPMC vesicles (FIG. 15). […] PBS as a negative control or 1% Triton as a positive control or 0.5 mM peptides were added to homogenous DMPC (Avanti 850345C) vesicles (0.5 mg/mL) in PBS, pH 7.4. In vitro turbidity change was monitored by following the absorbance at 660 nm for 1 hour at 24° C. Absorbance over time was plotted and the areas under the curve (AOC) were calculated.

Row | Compound | efficacy for activation of LPL [1] | further results
1 | Octanoic -A(Nle)(R8)TYTGIF(S5)DQVLSVLK(Sarcosine)ee [SEQ ID NO: 37] | did not affect LPL activation | –
2 | Octanoic-(R8)TYTGIF(S5)DQVLSVLK(Sarcosine)eeee (Octanoyl-[R8]TYTGIF[S5]DQVLSVLK[Sar][dE][dE][dE][dE]; staple 1-8) [SEQ ID NO: 39] | decreased peptide activity | –
3 | CCCC[C@H](NC(=O)[C@H](C)N)C(=O)N[C@]1(C)CCCCCCC=CCCCC2(CCCC=CCCCCCC[C@@](C)(C(=O)N[C@@H](CCCCN)C(=O)N(C)CC(=O)N[C@H](CCC(=O)O)C(=O)N[C@H](CCC(=O)O)C(=O)O)NC(=O)[C@H](C(C)C)NC(=O)[C@H](CO)NC(=O)[C@H](CC(C)C)NC(=O)[C@H](C(C)C)NC(=O)[C@H](CCC(N)=O)NC(=O)[C@H](CC(=O)O)NC2=O)NC(=O)[C@H](Cc2ccccc2)NC(=O)[C@H]([C@@H](C)CC)NC(=O)CNC(=O)[C@H]([C@@H](C)O)NC(=O)[C@H](Cc2ccc(O)cc2)NC(=O)[C@H]([C@@H](C)O)NC1=O (stereo partly drawn) [SEQ ID NO: 18, A(Nle)(R8)TYTGIF(B5)DQVLSV(S8)K(Sarcosine)ee-COOH] | – | LPL activation after pepsin treatment [2]: showed resistance to pepsin treatment
4 | CCCC[C@H](NC(=O)[C@H](C)NC(C)=O)C(=O)N[C@]1(C)CCCCCCC=CCCC[C@@](C)(C(=O)N[C@@H](CC(=O)O)C(=O)N[C@@H](CCC(N)=O)C(=O)N[C@H](C(=O)N[C@@H](CC(C)C)C(=O)N[C@@H](CO)C(=O)N[C@H](C(=O)N[C@@H](CC(C)C)C(=O)N[C@@H](CCCCN)C(=O)N(C)CC(=O)N[C@H](CCC(=O)O)C(=O)N[C@H](CCC(=O)O)C(=O)O)C(C)C)C(C)C)NC(=O)[C@H](Cc2ccccc2)NC(=O)[C@H]([C@@H](C)CC)NC(=O)CNC(=O)[C@H]([C@@H](C)O)NC(=O)[C@H](Cc2ccc(O)cc2)NC(=O)[C@H]([C@@H](C)O)NC1=O [SEQ ID NO: 34, Ac-A(Nle)(R8)TYTGIF(S5)DQVLSVLK(Sarcosine)ee] (Ac-A[Nle][R8]TYTGIF[S5]DQVLSVLK[Sar][dE][dE]-OH; staple 3-10; C-terminus assumed) | did not affect LPL activation | LPL activation after pepsin treatment [2]: showed resistance to pepsin treatment
5 | EK(R8)RDLYSK(S5)TAAFSTYFGIFTDQVLSVLKGEE (EK[R8]RDLYSK[S5]TAAFSTYFGIFTDQVLSVLKGEE; staple 3-10) [SEQ ID NO: 25] | did reduce the efficacy | –
6 | a(nle)(R8)TYTGIF(S5)DQVLSVLk(Sarcosine)ee ([dA][dNle][R8]TYTGIF[S5]DQVLSVL[dK][Sar][dE][dE]; staple 3-10) [SEQ ID NO: 36] | decreased LPL activation abilities | –
7 | DYLKEVFEKLRDLYEKFTPAVSTYTGIFTDQVLSVLKGEE [SEQ ID NO: 15, control D6-PV peptide, reference compound] | – | triglycerides [3]: decreased triglycerides to a similar extent
8 | STAAM(R8)TYTGIF(S5)DQVLSVLKGEE (STAAM[R8]TYTGIF[S5]DQVLSVLKGEE; staple 6-13) [SEQ ID NO: 5] | increased efficacy | non-esterified fatty acids (NEFA) [3]: more effective than D6-PV; total cholesterol [3]: more effective than D6-PV at decreasing total cholesterol; triglycerides [3]: decreased triglycerides to a similar extent
9 | a(nle)(R8)TYTGIF(S5)DQVLSVLK(Sarcosine)ee ([dA][dNle][R8]TYTGIF[S5]DQVLSVLK[Sar][dE][dE]; staple 3-10) [SEQ ID NO: 35] | decreased LPL activation abilities | –
10 | EK(R8)RDLYSK(S5)TAAFSTYTFIFTDQVLSVLKGEE (EK[R8]RDLYSK[S5]TAAFSTYTFIFTDQVLSVLKGEE; staple 3-10) [SEQ ID NO: 26] | did not affect peptide efficacy | –
11 | AMSTYTGIFTDQVLSVLKGEE [SEQ ID NO: 14, truncated ApoC-II peptide] | – | solubilization of DMPC vesicles [4]: did not
